From USRE28819E, “Dialkylated glycol compositions and medicament preparations containing same” (Syntex (U.S.A.) Inc., priority 1975, dated 1976)
Values after ≈ are worked out from the molar mass of the structure shown. Counter-ions that a name gives are not always drawn.

Tests used:
physchem = conditions: polyethylene glycol-550-dimethyl ether, organic solvent or mixture
[1] = solubility of medicament in polyethylene glycol-550-dimethyl ether at 30°C
[2] = storage stability of PGE2 formulations (percent activity, t90); type: physicochemical; conditions: PGE2, conclusion from Examples XV-XXIX
Protocol: A formulation is prepared having 1 mg. PGE2 per ml. 1,2-dimethoxyethane. After 12 days storage at 60°C. under a nitrogen atmosphere, the PGE2 assays 100% of the activity at time zero.
A formulation is prepared having 1 mg. PGE2 per ml. of triethylene glycol-dimethyl ether. After 5 days storage at 60°C. under a nitrogen atmosphere, the PGE2 assays 100% of the activity at time zero.
The following formulations are prepared having 1 mg. PGE2 per ml. of polyethylene glycol-550-dimethyl ether, and the additional material(s) as set forth below. The percent activity of the PGE2 after storage for 7 days at 80°C. is also given.
A formulation is prepared having 1 mg. PGE2, 0.01% edetic acid, 0.01% BHA and 0.01% BHT per ml. polyethylene glycol-550-dimethyl ether, and sealed in an ampule under nitrogen atmosphere. After 18 days storage at 80°C., the PGE2 assays 100% of the activity at time zero.
The following formulations are prepared having 1 mg. PGE2 per ml. polyethylene glycol-550 -dimethyl ether, and the additional material(s) as set forth below, and the sealed in individual ampules under nitrogen atmosphere. The time (t90) for 10% of the PGE2 to decompose when stored at 80°C. is given. Also given is the corresponding t90 for a formulation having 1 mg. PGE2 per ml. polyethylene glycol-400, also sealed under nitrogen atmosphere.
By comparison, 1 mg. […]

[3] = literature (Brummer; Karim et al); cited from earlier work
[4] = decomposition of aspirin vs. time in formulation stored at 80°C; type: physicochemical; conditions: conclusion from Examples XV-XXIX
Protocol: A formulation is prepared having 0.5 g. aspirin per 1.0g. polyethylene glycol- 750-dimethyl ether, and stored at 80°C. Decomposition of the aspirin is measured vs. time. The time for 10% decomposition is 27 hours. This reflects approximately a 30 month shelf-life at 25°C. This can be compared to a published report [Jun et al, J. Pharm. Sec.

[5] = polyethylene glycol-550-dimethyl ether, organic solvent or mixture

Compound | solubility [1, 5] | solubility (physchem) | other results
CC(=O)[C@@]12OC(C)(C)O[C@@H]1C[C@H]1[C@@H]3C[C@H](F)C4=CC(=O)C=C[C@]4(C)[C@@]3(F)[C@@H](O)C[C@@]12C [6α,9α-difluoro-11β-hydroxy-16α,17α-isopropylidenedioxy-pregna-1,4-diene-3,20-dione] |  | 6500 µg/mL (≈ 14.9 mM) | 
CC1(C)O[C@@H]2C[C@H]3[C@@H]4C[C@H](F)C5=CC(=O)C=C[C@]5(C)[C@@]4(Cl)[C@@H](Cl)C[C@]3(C)[C@]2(C(=O)CCl)O1 [9α,11β,21-trichloro-6α-fluoro-16α,17α-isopropylidenedioxy-pregna-1,4-diene-3,20-dione] |  | 1500 µg/mL (≈ 2.97 mM) | 
CCCCC[C@H](O)/C=C/[C@@H]1[C@@H](C/C=C\CCCC(=O)O)[C@@H](O)C[C@H]1O [PGF2α, 9α,11α,15α-trihydroxy-5,13-prostadienoic acid] |  | 36000 µg/mL (≈ 102 mM) | 
CN(C)C1C(=O)C(C(N)=O)=C(O)C2(O)C(=O)C3=C(O)c4c(O)cccc4C(C)(O)C3C(O)C12 (stereo not drawn) [oxytetracycline hydrochloride] |  | 340 µg/mL | 
gramicidin |  |  | solubility ([1]; in polyethylene glycol-550-dimethyl ether, 30°C): 4400 µg/mL

More lines, main results first:

solubility [1, 5] | Compound | solubility (physchem) | other results
2700 µg/mL (≈ 7.86 mM) | CCCCCCCCCCCCCCCC(=O)N(CCO)CCO [N,N-bis(2-hydroxyethyl)-palmitamide] |  | 
2000 µg/mL (≈ 5.67 mM) | CCCCC[C@H](O)/C=C/[C@H]1[C@H](O)CC(=O)[C@@H]1C/C=C\CCCC(=O)O [PGE2, 11α,15α-dihydroxy-9-keto-5,13-prostadienoic acid] |  | chemical potency in the dialkylated glycol vehicle [2]: stabilizes, for extended periods of time, the chemical potency; chemical stability [3]: relatively unstable
120000 µg/mL (≈ 666 mM) | CC(=O)Oc1ccccc1C(=O)O [aspirin, acetylsalicylic acid] |  | chemical potency in the dialkylated glycol vehicle [4]: stabilizes, for extended periods of time, the chemical potency
111000 µg/mL (≈ 672 mM) | CCOC(=O)c1ccc(N)cc1 [benzocaine] |  | 
